These compounds were tested against T1, human αVβ6 (Homo sapiens, UniProt P06756+P18564) (assay: human αVβ6 HTRF binding assay).
T1 construct: purchased R & D systems 3817-AV
Protocol: All binding assays used the HTRF (homogeneous time resolved fluorescence) technology from Cisbio International, therefore all assays are described as HTRF binding assays. The assay results for the Examples are listed above together with the characterization data. The HTRF binding assays are established for the following integrins: human αVβ6, human αVβ1, human αVβ3, human αVβ5, and human αVβ8. All assays used the following assay buffer: 20 mM Tris, pH 7.4, 1 mM MgCl2, 1 mM MnCl2, 0.01% Tween 20, and 0.01% BSA. Alternatively, a SPA-based assay was used for evaluation of receptor binding.
[…]

T1 sequence (P06756 31-992 limits assumed): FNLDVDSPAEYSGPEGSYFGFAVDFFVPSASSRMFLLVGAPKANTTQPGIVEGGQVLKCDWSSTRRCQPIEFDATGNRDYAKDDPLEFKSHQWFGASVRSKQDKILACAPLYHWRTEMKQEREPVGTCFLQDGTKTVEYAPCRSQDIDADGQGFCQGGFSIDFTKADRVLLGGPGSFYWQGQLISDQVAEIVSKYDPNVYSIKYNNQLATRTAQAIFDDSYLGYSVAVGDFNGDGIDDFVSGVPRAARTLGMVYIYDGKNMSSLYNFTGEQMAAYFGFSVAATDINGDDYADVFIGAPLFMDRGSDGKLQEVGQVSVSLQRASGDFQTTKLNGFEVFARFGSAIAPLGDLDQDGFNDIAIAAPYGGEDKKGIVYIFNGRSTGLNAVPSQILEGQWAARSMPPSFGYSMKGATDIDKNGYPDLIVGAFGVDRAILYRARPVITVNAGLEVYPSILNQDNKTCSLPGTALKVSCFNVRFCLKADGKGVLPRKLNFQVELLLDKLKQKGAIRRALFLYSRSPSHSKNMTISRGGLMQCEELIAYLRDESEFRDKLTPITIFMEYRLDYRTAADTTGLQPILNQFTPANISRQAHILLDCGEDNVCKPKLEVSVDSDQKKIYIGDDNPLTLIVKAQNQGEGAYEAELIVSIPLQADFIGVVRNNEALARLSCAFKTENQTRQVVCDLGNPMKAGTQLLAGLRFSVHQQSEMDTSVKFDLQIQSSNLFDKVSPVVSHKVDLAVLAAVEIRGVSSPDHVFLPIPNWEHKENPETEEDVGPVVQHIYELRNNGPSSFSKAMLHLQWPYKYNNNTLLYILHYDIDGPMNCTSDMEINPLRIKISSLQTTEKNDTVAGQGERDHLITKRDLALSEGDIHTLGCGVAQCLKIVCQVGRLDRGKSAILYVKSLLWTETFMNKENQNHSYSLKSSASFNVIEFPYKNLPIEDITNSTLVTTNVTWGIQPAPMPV
T1 sequence (P18564 22-707 limits assumed): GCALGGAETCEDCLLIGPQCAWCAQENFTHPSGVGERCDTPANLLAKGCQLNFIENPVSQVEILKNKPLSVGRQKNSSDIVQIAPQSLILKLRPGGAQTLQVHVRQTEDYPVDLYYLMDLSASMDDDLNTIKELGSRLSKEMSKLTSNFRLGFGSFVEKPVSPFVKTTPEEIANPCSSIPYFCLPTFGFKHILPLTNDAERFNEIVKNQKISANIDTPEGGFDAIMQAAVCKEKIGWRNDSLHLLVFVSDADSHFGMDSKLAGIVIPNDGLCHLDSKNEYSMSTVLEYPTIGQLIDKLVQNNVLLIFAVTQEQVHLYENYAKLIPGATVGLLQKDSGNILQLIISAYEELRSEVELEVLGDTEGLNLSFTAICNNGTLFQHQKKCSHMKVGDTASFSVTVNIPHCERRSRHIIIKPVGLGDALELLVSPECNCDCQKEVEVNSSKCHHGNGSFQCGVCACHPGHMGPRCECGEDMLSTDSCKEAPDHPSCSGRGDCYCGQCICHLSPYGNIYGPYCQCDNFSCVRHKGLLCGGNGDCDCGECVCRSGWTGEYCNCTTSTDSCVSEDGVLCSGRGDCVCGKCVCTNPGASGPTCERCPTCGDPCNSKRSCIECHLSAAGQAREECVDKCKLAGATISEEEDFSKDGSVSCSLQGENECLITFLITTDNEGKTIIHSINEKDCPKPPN

IC50 [nM]	SMILES
23	Cc1c(C(=O)NC(CC(=O)O)c2cc(Cl)cc(Cl)c2)cnn1CCc1ccc2c(n1)NCCC2 (stereo not shown) [Example 49]
26	COc1ccc([C@H](CC(=O)O)NC(=O)c2cnn(CCc3ccc4c(n3)NCCC4)c2COC(C)(C)C)cc1F [Example 50]
28	CC(C)(C)OCc1c(C(=O)NC(CC(=O)O)c2cccc(Oc3cc(Cl)cc(Cl)c3)c2)cnn1CCc1ccc2c(n1)NCCC2 (stereo not shown) [Example 51]
29	Cc1ccc(C(CC(=O)O)NC(=O)c2cnn(CCc3ccc4c(n3)NCCC4)c2CO)cc1C (stereo not shown) [Example 52]
30	N#Cc1cccc(C(CC(=O)O)NC(=O)c2cnn(CCc3ccc4c(n3)NCCC4)c2CO)c1 (stereo not shown) [Example 53]
30	COc1ccc([C@H](CC(=O)O)NC(=O)c2cn(CCc3ccc4c(n3)NCCC4)nc2C)cc1F [Example 54]
32	Cc1cccc(C(CC(=O)O)NC(=O)c2cnn(CCc3ccc4c(n3)NCCC4)c2CO)c1 (stereo not shown) [Example 55]
37	O=C(O)CC(NC(=O)c1cnn(CCc2ccc3c(n2)NCCC3)c1)c1ccc2c(c1)OCO2 (stereo not shown) [Example 56]
40	Cc1nn(CCc2ccc3c(n2)NCCC3)c(C)c1C(=O)NC(CC(=O)O)c1ccc(Cl)c(Cl)c1 (stereo not shown) [Example 57]
40	O=C(O)CC(NC(=O)c1cnn(CCc2ccc3c(n2)NCCC3)c1CO)c1ccc(Cl)c(Cl)c1 (stereo not shown) [Example 58]
40	CC(C)(C)OCc1c(C(=O)NC(CC(=O)O)c2cc(Cl)cc(Cl)c2)cnn1CCCc1ccc2c(n1)NCCC2 (stereo not shown) [Example 59]
46	O=C(O)C[C@H](NC(=O)c1cnn(CCCc2ccc3c(n2)NCCC3)c1)c1cc(Cl)cc(Cl)c1 [Example 60]
49	CC(C)(C)c1cc(Br)cc([C@H](CC(=O)O)NC(=O)c2cnn(CCCc3ccc4c(n3)NCCC4)c2)c1 [Example 61]
49	O=C(O)CC(NC(=O)c1cnn(CCc2ccc3c(n2)NCCC3)c1CO)c1ccc(C(F)(F)F)cc1 (stereo not shown) [Example 62]
56	CC(C)(C)c1cc(Br)cc([C@H](CC(=O)O)NC(=O)c2cn(CCc3ccc4c(n3)NCCC4)nc2C(F)(F)F)c1 [Example 63]
64	O=C(O)CC(NC(=O)c1cnn(CCc2ccc3c(n2)NCCC3)c1CO)c1cccc(-n2cccc2)c1 (stereo not shown) [Example 64]
64	O=C(O)CC(NC(=O)c1cnn(CCc2ccc3c(n2)NCCC3)c1CO)c1ccc2c(c1)OCO2 (stereo not shown) [Example 65]
91	Cc1ccc(C(CC(=O)O)NC(=O)c2cnn(CCc3ccc4c(n3)NCCC4)c2CO)cc1 (stereo not shown) [Example 66]
95	O=C(O)CC(NC(=O)c1cnn(CCc2ccc3c(n2)NCCC3)c1CO)c1ccc(Cl)cc1 (stereo not shown) [Example 67]
98	O=C(O)CC(NC(=O)c1cnn(CCCc2ccc3c(n2)NCCC3)c1CO)c1cc(Cl)cc(Cl)c1 (stereo not shown) [Example 68]
111	O=C(O)CC(NC(=O)c1cnn(CCc2ccc3c(n2)NCCC3)c1-c1ccccc1)c1cc(Cl)cc(Cl)c1 (stereo not shown) [Example 69]
112	Cc1nn(CCc2ccc3c(n2)NCCC3)cc1C(=O)NC(CC(=O)O)c1cc(Cl)cc(Cl)c1 (stereo not shown) [Example 70]
120	O=C(O)CC(NC(=O)c1cnn(CCc2ccc3c(n2)NCCC3)c1CO)c1ccc(F)cc1 (stereo not shown) [Example 71]

IC50 [nM]	SMILES
124	O=C(O)CC(NC(=O)c1cnn(CCc2ccc3c(n2)NCCC3)c1CO)c1ccccc1 (stereo not shown) [Example 72]
124	COc1ccc(C(CC(=O)O)NC(=O)c2cnn(CCc3ccc4c(n3)NCCC4)c2CO)cc1 (stereo not shown) [Example 73]
125	COc1ccc([C@H](CC(=O)O)NC(=O)c2cnn(CCCc3ccc4c(n3)NCCC4)c2)cc1F [Example 74]
130	O=C(O)CC(NC(=O)c1cnn(CCc2ccc3c(n2)NCCC3)c1CO)c1cccc(F)c1 (stereo not shown) [Example 75]
131	COc1ccc(C(CC(=O)O)NC(=O)c2cnn(CCc3ccc4c(n3)NCCC4)c2CO)cc1OC (stereo not shown) [Example 76]
134	Cc1nn(CCc2ccc3c(n2)NCCC3)c(C)c1C(=O)NC(CC(=O)O)c1ccc(C(F)(F)F)cc1 (stereo not shown) [Example 77]
137	O=C(O)CC(NC(=O)c1cn(CCc2ccc3c(n2)NCCC3)nc1-c1ccccc1)c1ccc(Cl)c(Cl)c1 (stereo not shown) [Example 78]
178	O=C(O)CC(NC(=O)c1cnn(CCc2ccc3c(n2)NCCC3)c1CO)c1cc(F)cc(F)c1 (stereo not shown) [Example 80]
215	Cc1cc(C)c(S(=O)(=O)N[C@H](CNC(=O)c2cnn(CCc3cc4c(nc3C)NCCC4)c2)C(=O)O)c(C)c1 [Example 81]
244	O=C(O)CC(NC(=O)c1cn(CCc2ccc3c(n2)NCCC3)nc1-c1ccccc1)c1cc(Cl)cc(Cl)c1 (stereo not shown) [Example 82]
278	Cc1nn(CCc2ccc3c(n2)NCCC3)c(C)c1C(=O)NC(CC(=O)O)c1cc(Cl)cc(Cl)c1 (stereo not shown) [Example 83]
284	CC(C)(C)OCc1nn(CCc2ccc3c(n2)NCCC3)cc1C(=O)NC(CC(=O)O)c1ccc(Cl)c(Cl)c1 (stereo not shown) [Example 84]
321	O=C(NCC(C(=O)O)c1ccccc1)c1cnn(CCc2ccc3c(n2)NCCC3)c1 (stereo not shown) [Example 85]
339	COc1ccc([C@H](CC(=O)O)NC(=O)c2cnn(CCCc3ccc4c(n3)NCCC4)c2)cn1 [Example 87]
378	COc1ccc([C@H](CC(=O)O)NC(=O)c2cnn(CCCNC3=NCCN3)c2)cn1 [Example 88]
399	CC(C)CC(CC(=O)O)NC(=O)c1cnn(CCc2ccc3c(n2)NCCC3)c1 (stereo not shown) [Example 89]
401	O=C(O)CC(CCc1ccccc1)NC(=O)c1cnn(CCc2ccc3c(n2)NCCC3)c1 (stereo not shown) [Example 90]
410	COc1ccc([C@H](CC(=O)O)NC(=O)c2cnn(CCc3ccc4c(n3)NCCC4)c2-c2ccccc2)cc1F [Example 91]
416	Cc1ccccc1[C@H](CC(=O)O)NC(=O)c1cnn(CCc2ccc3c(n2)NCCC3)c1CO [Example 92]
446	CN(C(=O)c1cnn(CCc2ccc3c(n2)NCCC3)c1)[C@H](CC(=O)O)c1cc(Cl)cc(Cl)c1 [Example 93]
592	COc1ccc([C@H](CC(=O)O)NC(=O)c2cnn(CCCNc3ccccn3)c2)cn1 [Example 94]
1050	CC(C)(C)OCc1nn(CCc2ccc3c(n2)NCCC3)cc1C(=O)NC(CC(=O)O)c1ccc(C(F)(F)F)cc1 (stereo not shown) [Example 95]
1100	COC(=O)C[C@H](NC(=O)c1cnn(CCc2ccc3c(n2)NCCC3)c1)c1cc(Br)cc(C(C)(C)C)c1 [Example 96]

IC50 [nM]	SMILES
1170	O=C(O)C[C@H](NC(=O)c1cnn(Cc2ccc3c(n2)NCCC3)c1)c1cc(Cl)cc(Cl)c1 [Example 97]
1410	CC(C)(C)c1cc(Br)cc([C@H](CC(=O)O)NC(=O)c2cnn(Cc3ccc4c(n3)NCCC4)c2)c1 [Example 98]
1420	O=C(O)CC(Cc1ccccc1)NC(=O)c1cnn(CCc2ccc3c(n2)NCCC3)c1 (stereo not shown) [Example 99]
1460	Cc1nc2c(cc1Cn1cc(C(=O)NC(CC(=O)O)c3cc(Cl)cc(Cl)c3)c(C)n1)CCCN2 (stereo not shown) [Example 100]
1460	CCOC(=O)C[C@H](NC(=O)c1cnn(CCc2ccc3c(n2)NCCC3)c1)c1cc(Cl)cc(Cl)c1 [Example 101]
1980	COc1ccc([C@H](CC(=O)O)NC(=O)c2cnn(Cc3ccc4c(n3)NCCC4)c2)cn1 [Example 102]
2600	O=C(O)CC(NC(=O)c1cnn(CCc2ccc3c(n2)NCCC3)c1CO)c1ccccc1Cl (stereo not shown) [Example 103]
3810	CCN(C(=O)c1cnn(CCc2ccc3c(n2)NCCC3)c1)C(CC(C)=O)c1cc(Cl)cc(Cl)c1 (stereo not shown) [Example 104]
3930	Cc1nc2c(cc1Cn1cc(C(=O)NC(CC(=O)O)c3cc(Cl)cc(Cl)c3)c(CO)n1)CCCN2 (stereo not shown) [Example 105]
4310	CCOC(=O)C[C@H](NC(=O)c1cnn(CCc2ccc3c(n2)NCCC3)c1)c1cc(Br)cc(C(C)(C)C)c1 [Example 106]
5000	Cc1nc2c(cc1CCn1ncc(C(=O)NC(CC(=O)O)c3cc(Cl)cc(Cl)c3)c1CO)CCCN2 (stereo not shown) [Example 107]
5000	Cc1nc2c(cc1CCn1ncc(C(=O)NC(CC(=O)O)c3cc(Cl)cc(Cl)c3)c1COC(C)(C)C)CCCN2 (stereo not shown) [Example 108]
6440	O=C(O)CC1(NC(=O)c2cnn(CCc3ccc4c(n3)NCCC4)c2)Cc2ccccc2C1 [Example 109]
34	Cc1cc(C)c(S(=O)(=O)N[C@@H](CNC(=O)c2ccnn2CCc2ccc3c(n2)NCCC3)C(=O)O)c(C)c1 [Example 115]
102	O=C(O)C[C@H](NC(=O)c1cn(CCc2ccc3c(n2)NCCC3)cn1)c1cc(Cl)cc(Cl)c1 [Example 116]
130	CCOC(=O)[C@H](CNC(=O)c1cn(CCc2ccc3c(n2)NCCC3)cn1)NS(=O)(=O)c1c(C)cc(C)cc1C [Example 117]
223	Cc1cc(C)c(S(=O)(=O)N[C@@H](CNC(=O)c2cnn(Cc3cc4c(nc3C)NCCC4)n2)C(=O)O)c(C)c1 [Example 118]
98	O=C(O)C[C@H](NC(=O)c1ncn(CCc2ccc3c(n2)NCCC3)n1)c1cc(Cl)cc(Cl)c1 [Example 120]
43	Cc1cc(C)c(S(=O)(=O)N[C@@H](CNC(=O)c2ccn(Cc3cc4c(nc3C)NCCC4)c2)C(=O)O)c(C)c1 [Example 122]
2.6	CCCCS(=O)(=O)N[C@@H](CNC(=O)c1cnn(CCc2ccc3c(n2)NCCC3)c1)C(=O)O [Example 124]
14	O=C(NC[C@H](NS(=O)(=O)Cc1ccccc1)C(=O)O)c1cnn(CCc2ccc3c(n2)NCCC3)c1 [Example 125]

Source: patent publication US10851098B2, “Azole amides and amines as alpha v integrin inhibitors” (BRISTOL-MYERS SQUIBB COMPANY, priority 2016, dated 2020)
